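Exposure lasted 48 hours, with cells grown in 96-well plates and compounds tested at five concentrations. GI50 is the concentration that inhibits growth by half. TGI is the concentration that stops growth completely.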
Tests used:
Experiment in all cases: inhibition of tumour cell growth, NCI panel, 48 h
[1] = test system: SF-268 CNS
[2] = test system: 786-0 renal
[3] = test system: OVCAR-4 ovarian
[4] = test system: HCT-15 colon
[5] = test system: RXF 393 renal
[6] = test system: EKVX NSCLC
[7] = test system: SF-295 CNS
[8] = test system: TK-10 renal
[9] = test system: NCI-H522 lung
[10] = test system: SK-MEL-2 melanoma

| Structure (SMILES) | GI50 [1] | TGI [1] | GI50 [2] | TGI [2] | GI50 [3] | TGI [3] | GI50 [4] | TGI [4] | GI50 [5] | TGI [5] | GI50 [6] | TGI [6] | GI50 [7] | TGI [7] | GI50 [8] | TGI [8] | GI50 [9] | TGI [9] | GI50 [10] | TGI [10] |
| --- | --- | --- | --- | --- | --- | --- | --- | --- | --- | --- | --- | --- | --- | --- | --- | --- | --- | --- | --- | --- |
| C/C=C(/C)C(=O)OC1C=C(CO)C(=O)C(OC(=O)C(C)(O)C(C)Cl)C1C(C)C (stereo not given) | 2.19 µM | 5.08 µM | 1.67 µM | 3.12 µM | 1.87 µM | 3.95 µM | 0.772 µM | 2.36 µM | 1.6 µM | 3.13 µM | 2.19 µM | 4.9 µM | 1.94 µM | 4.79 µM | 1.55 µM | 3.05 µM | 0.603 µM | 2.37 µM | 2.06 µM | 4.29 µM |
| COc1cc2ncn(-c3cc(OCc4ccccc4C(F)(F)F)c(C(C)=O)s3)c2cc1OC | > 25 µM | > 25 µM | > 25 µM | > 25 µM | > 25 µM | > 25 µM | > 25 µM | > 25 µM | > 21.5 µM | > 25 µM | > 25 µM | > 25 µM | > 25 µM | > 25 µM | > 25 µM | > 25 µM | > 25 µM | > 25 µM | > 25 µM | > 25 µM |
| CCCN1C(=O)/C(=C/c2ccc(O)cc2)SC1=Nc1ccc(OC)cc1 | 17.3 µM | 74.9 µM | 16 µM | 34.6 µM | 13.4 µM | 35.2 µM | 12.6 µM | 25.7 µM | 11.7 µM | 28.3 µM | 12.3 µM | 27.9 µM | 14.7 µM | 34.9 µM | 18.4 µM | 39 µM | 39.9 µM | > 100 µM | 37.1 µM | > 100 µM |
| Cc1nnc(-c2ccc(C)c(-c3ccc(C(=O)NCc4ccc(Cl)cc4)cc3)c2)o1 | 12.9 µM | > 25 µM | 18.7 µM | > 25 µM | 3.41 µM | 16.4 µM | 11.7 µM | > 25 µM | 6.28 µM | > 25 µM | 7.02 µM | > 25 µM | 7.16 µM | > 25 µM | > 15.7 µM | > 25 µM | 8.49 µM | > 25 µM | 12.7 µM | > 25 µM |
| CN(C)CCNC(=O)c1cccc2ncc(-c3ccccc3)nc12 |  | 29.4 µM |  | > 100 µM |  | 26.7 µM |  | 25.2 µM |  | 18 µM |  | 34.3 µM |  | 58.5 µM |  | 34.7 µM |  | 21.1 µM |  | 27.9 µM |
| CO[C@@H]1[C@H]2[C@@H](C)c3ccoc3C[C@@H]2[C@@]2(C)CC[C@H](OC(=O)c3ccccc3)[C@](C)(C(=O)O)[C@]2(O)[C@@H]1OC(=O)c1ccccc1 | 21.2 µM | > 50 µM | 15.8 µM | > 50 µM | 22.1 µM | > 50 µM | 7.93 µM | 16.3 µM | 12.2 µM | 39 µM | 11.1 µM | 45.6 µM | 10.3 µM | 41.4 µM | 14.3 µM | > 50 µM | 34.9 µM | > 50 µM | 24.1 µM | > 50 µM |
| Cc1c(C2Cc3ccccc3N2)c2ccccc2n1C (stereo not given) |  | > 100 µM |  | > 100 µM |  | > 100 µM |  | > 100 µM |  | > 100 µM |  | > 100 µM |  | > 100 µM |  | > 100 µM |  | > 100 µM |  | > 100 µM |
| CCOC(=O)c1c2cccccc2n2c(=O)cc(C)nc12 |  | > 100 µM |  | > 100 µM |  | > 100 µM |  | > 100 µM |  | > 100 µM |  | > 100 µM |  | > 100 µM |  | > 100 µM |  | > 100 µM |  | > 100 µM |
| Cc1cc(NNC(=O)c2ccccc2O)nc(Nc2nc3ccccc3o2)n1 | 1.13 µM | 40.8 µM | 1.8 µM | 7.98 µM | 0.79 µM | 7.06 µM | 1.17 µM | > 39.5 µM | 1.69 µM | 7.3 µM | 2.81 µM | 15.2 µM | 0.846 µM | 14.4 µM | 2.73 µM | 23.4 µM | 2.5 µM | 12.9 µM | 2.24 µM | 13.3 µM |
| CN1CCN(Cc2ccc(NC(=O)c3cncc(C#Cc4cnn5ccccc45)c3)cc2C(F)(F)F)CC1 | 1.05 µM | 2.54 µM | 1.1 µM | 2.26 µM | 0.445 µM | 2.95 µM | 0.818 µM | 3.66 µM | 0.693 µM | 1.66 µM | 0.786 µM | 2 µM | 0.916 µM | 3.35 µM | 1.61 µM | 4.13 µM | 0.838 µM | 2.27 µM | 0.891 µM | 2.02 µM |
| Nc1nc(N)c(N=Nc2ccc(C(=O)O)c(O)c2)c(N)n1 |  | > 100 µM |  | > 100 µM |  | 35.1 µM |  | > 100 µM |  | > 100 µM |  | > 100 µM |  | > 100 µM |  | > 100 µM |  | > 100 µM |  | > 100 µM |
| CCCCCCCCCCCCCC(=O)OCC1OC(n2cc(F)c(=O)[nH]c2=O)C(N)C(OC(=O)CCCCCCCCCCCCC)C1O (stereo not given) |  | > 100 µM |  | > 100 µM |  | > 100 µM |  | > 100 µM |  | > 100 µM |  | > 100 µM |  | > 100 µM |  | > 100 µM |  | > 100 µM |  | > 100 µM |

Source: PubChem BioAssay (NCI)
